In general, IC50 refers to the concentration that gives 50% inhibition. Usually MIC50 stands for an inhibitory concentration at the 50% level, which refers to growth in some studies and to a panel of isolates in others.

Read-outs that look alike come from different tables or passages of the source. Bounds are passed on as bounds.

In US12545672B2, “Antibiotic compounds, methods of manufacturing the same, pharmaceutical compositions containing the same and uses thereof” (Debiopharm International S.A., priority 2018, dated 2026) one finds IC50 and MIC50 data, which are given here for 27 compounds.

Assay [1] concerns the target Neisseria gonorrhoeae FabI (Neisseria gonorrhoeae, UniProt A0ACH0F547). The experiment in a line: Neisseria gonorrhoeae FabI inhibition assay (NADH consumption).
The subject of the next assay is Neisseria gonorrhoeae. The experiment in a line: MIC50 by CLSI agar dilution on a panel of N. gonorrhoeae clinical isolates. The assay is classed as cell-based. As to conditions: Neisseria gonorrhoeae. As for the experimental part:
MIC50: MICs were determined in accordance with the appropriate Clinical and Laboratory Standards Institute (CLSI) methodology by the agar dilution susceptbility testing method in GC agar base.

[2] abbreviates: agar dilution, GC agar base, minimum of 15 clinical isolates, read-out: MIC50.

Chain of Neisseria gonorrhoeae FabI (A0ACH0F547 1-261): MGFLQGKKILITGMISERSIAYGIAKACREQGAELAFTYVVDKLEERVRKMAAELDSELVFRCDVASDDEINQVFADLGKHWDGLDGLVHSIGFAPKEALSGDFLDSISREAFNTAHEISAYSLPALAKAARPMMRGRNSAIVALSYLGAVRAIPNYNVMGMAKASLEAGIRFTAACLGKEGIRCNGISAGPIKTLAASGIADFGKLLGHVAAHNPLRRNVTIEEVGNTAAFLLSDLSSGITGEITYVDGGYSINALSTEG

`Cc1c(CN(C)C(=O)/C=C/c2cnc3c(c2)N[C@H](C)[C@@](C)(O)C(=O)N3)oc2ccccc12` (racemic) [Compound 207, (E)-3-(3-hydroxy-2,3-dimethyl-4-oxo-2,3,4,5-tetrahydro-1H-pyrido[2,3-b][1,4]diazepin-8-yl)-N-methyl-N-((3-methylbenzofuran-2-yl)methyl)acrylamide]: the IC50 in assay [1] is less than 10 nM. In the case of `Cc1oc2ccccc2c1CN(C)C(=O)/C=C/c1cnc2c(c1)NC[C@@](C)(CO)C(=O)N2` (single isomer, unassigned) [Compound 40], in the assay with Neisseria gonorrhoeae (setting [2]), the MIC50 is less than 1 µg/mL. The IC50 in assay [1] is less than 10 nM. The like results for `Cc1oc2ccccc2c1CN(C)C(=O)/C=C/c1cnc2c(c1)NC[C@](C)(CO)C(=O)N2` (single isomer, unassigned) [Compound 41] were, in that order, less than 1 µg/mL and less than 10 nM. The like results for `Cc1c(CN(C)C(=O)/C=C/c2cnc3c(c2)N[C@H](C)[C@H](O)C(=O)N3)oc2ccccc12` (single isomer, unassigned) [Compound 150] were, in that order, less than 1 µg/mL and less than 10 nM.

Take `Cc1oc2ccccc2c1CN(C)C(=O)/C=C/c1cnc2c(c1)N[C@H](C)[C@H](O)C(=O)N2` (single isomer, unassigned) [Compound 151]: in the assay on Neisseria gonorrhoeae (setting [2]), the MIC50 was less than 1 µg/mL. The IC50 in assay [1] was less than 10 nM. The like results for `Cc1c(CN(C)C(=O)/C=C/c2cnc3c(c2)N[C@@](C)(CO)C(=O)N3)oc2ccccc12` (single isomer, unassigned) [Compound 208] were, in that order, less than 1 µg/mL and less than 10 nM. The like results for `Cc1c(CN(C)C(=O)/C=C/c2cnc3c(c2)N[C@](C)(CO)C(=O)N3)oc2ccccc12` (single isomer, unassigned) [Compound 209] were, in that order, less than 1 µg/mL and less than 10 nM. For the compound `Cc1c(CN(C)C(=O)/C=C/c2cnc3c(c2)C[C@@](C)(O)C(=O)N3)oc2ccccc12` (single isomer, unassigned) [Compound 247], the MIC50 against Neisseria gonorrhoeae is less than 1 µg/mL. Moreover, the IC50 in assay [1] was less than 10 nM. Regarding `Cc1c(CN(C)C(=O)/C=C/c2cnc3c(c2)C=C[C@@](C)(O)C(=O)N3)oc2ccccc12` (single isomer, unassigned) [Compound 260], in the assay with Neisseria gonorrhoeae (setting [2]), the MIC50 was less than 1 µg/mL. Also, the 50% inhibitory concentration (IC50) in assay [1] is less than 10 nM. As to `N#Cc1ccc(Oc2ccc(C3=C[C@@H]4CN(C(=O)/C=C/c5cnc6c(c5)NCCC(=O)N6)C[C@@H]4C3)cc2)cc1` (stereo in doubt) [Compound 198, 4-(4-((3aR,6aS)-2-((E)-3-(4-oxo-2,3,4,5-tetrahydro-1H-pyrido[2,3-b][1,4]diazepin-8-yl)acryloyl)-1,2,3,3a,4,6a-hexahydrocyclopenta[c]pyrrol-5-yl)phenoxy)benzonitrile], in the assay with Neisseria gonorrhoeae (setting [2]), the MIC50 was less than 1 µg/mL. For the same compound, in assay [1], the IC50 was less than 10 nM.

As for `Cc1c(CN(C)C(=O)/C=C/c2cnc3c(c2)CCCC(=O)N3)oc2cccc(N)c12` [Compound 5, (E)-N-((4-amino-3-methylbenzofuran-2-yl)methyl)-N-methyl-3-(8-oxo-6,7,8,9-tetrahydro-5H-pyrido[2,3-b]azepin-3-yl)acrylamide], in the assay on Neisseria gonorrhoeae (setting [2]), the MIC50 was less than 1 µg/mL. This compound came in with an IC50 in assay [1] of less than 10 nM. The like results for `Cc1c(CN(C)C(=O)/C=C/c2cnc3c(c2)NCCC(=O)N3)oc2cccc(N)c12` [Compound 7, (E)-N-((4-amino-3-methylbenzofuran-2-yl)methyl)-N-methyl-3-(4-oxo-2,3,4,5-tetrahydro-1H-pyrido[2,3-b][1,4]diazepin-8-yl)acrylamide] were, in that order, less than 1 µg/mL and less than 10 nM. The like results for `Cc1c(CN(C)C(=O)/C=C/c2cnc3c(c2)NCC(=O)N3)oc2ccccc12` [Compound 10, (E)-N-methyl-N-((3-methylbenzofuran-2-yl)methyl)-3-(3-oxo-1,2,3,4-tetrahydropyrido[2,3-b]pyrazin-7-yl)acrylamide] were, in that order, less than 1 µg/mL and less than 10 nM. In the case of `Cc1c(CN(C)C(=O)/C=C/c2cnc3c(c2)NC(C)(C)C(=O)N3)oc2ccccc12` [Compound 19, (E)-3-(2,2-dimethyl-3-oxo-1,2,3,4-tetrahydropyrido[2,3-b]pyrazin-7-yl)-N-methyl-N-((3-methylbenzofuran-2-yl)methyl)acrylamide], in the assay on Neisseria gonorrhoeae (setting [2]), the MIC50 is less than 1 µg/mL. Also, in assay [1], the IC50 is less than 10 nM.

As for `Cc1c(CN(C)C(=O)/C=C/c2cnc3c(c2)NCC(C)(CO)C(=O)N3)oc2ccccc12` (stereo not shown) [Compound 31, (E)-3-(3-(hydroxymethyl)-3-methyl-4-oxo-2,3,4,5-tetrahydro-1H-pyrido[2,3-b][1,4]diazepin-8-yl)-N-methyl-N-((3-methylbenzofuran-2-yl)methyl)acrylamide], the MIC50 in the assay on Neisseria gonorrhoeae (setting [2]) is less than 1 µg/mL. The same compound had an IC50 in assay [1] of less than 10 nM. The like results for `Cc1c(CN(C)C(=O)/C=C/c2cnc3c(c2)NC[C@@](C)(CO)C(=O)N3)oc2ccccc12` [Compound 32, (S,E)-3-(3-(hydroxymethyl)-3-methyl-4-oxo-2,3,4,5-tetrahydro-1H-pyrido[2,3-b][1,4]diazepin-8-yl)-N-methyl-N-((3-methylbenzofuran-2-yl)methyl)acrylamide] were, in that order, less than 1 µg/mL and less than 10 nM. The like results for `Cc1c(CN(C)C(=O)/C=C/c2cnc3c(c2)NC[C@](C)(CO)C(=O)N3)oc2ccccc12` [Compound 33, (R,E)-3-(3-(hydroxymethyl)-3-methyl-4-oxo-2,3,4,5-tetrahydro-1H-pyrido[2,3-b][1,4]diazepin-8-yl)-N-methyl-N-((3-methylbenzofuran-2-yl)methyl)acrylamide] were, in that order, less than 1 µg/mL and less than 10 nM. For the compound `Cc1oc2ccccc2c1CN(C)C(=O)/C=C/c1cnc2c(c1)NCC(C)(CO)C(=O)N2` (stereo not shown) [Compound 39, (E)-3-(3-(Hydroxymethyl)-3-methyl-4-oxo-2,3,4,5-tetrahydro-1H-pyrido[2,3-b][1,4]diazepin-8-yl)-N-methyl-N-((2-methylbenzofuran-3-yl)methyl)acrylamide], the MIC50 with Neisseria gonorrhoeae (setting [2]) is less than 1 µg/mL. In assay [1], the concentration for half-maximal inhibition (IC50) was less than 10 nM.

On to `O=C1CCNc2cc(/C=C/C(=O)N3C[C@H]4CC(c5ccc(Oc6ncccn6)cc5)=C[C@H]4C3)cnc2N1` [Compound 60, 8-((E)-3-Oxo-3-((3aS,6aR)-5-(4-(pyrimidin-2-yloxy)phenyl)-3,3a,4,6a-tetrahydrocyclopenta[c]pyrrol-2(1H)-yl)prop-1-en-1-yl)-1,2,3,5-tetrahydro-4H-pyrido[2,3-b][1,4]diazepin-4-one], for which the MIC50 in the assay with Neisseria gonorrhoeae (setting [2]) was less than 1 µg/mL. In assay [1], this compound showed an IC50 of less than 10 nM.

Take `Cc1oc2ccccc2c1CN(C)C(=O)/C=C/c1cnc2c(c1)NC1(CCOCC1)C(=O)N2` [Compound 64, (E)-N-Methyl-N-((2-methylbenzofuran-3-yl)methyl)-3-(3′-oxo-2,3,3′,4′,5,6-hexahydro-1′H-spiro[pyran-4,2′-pyrido[2,3-b]pyrazin]-7′-yl)acrylamide]: the MIC50 with Neisseria gonorrhoeae (setting [2]) is less than 1 µg/mL. In assay [1], this compound came in with an IC50 of less than 10 nM. The like results for `Cc1oc2c(N)cccc2c1CN(C)C(=O)/C=C/c1cnc2c(c1)NCCC(=O)N2` [Compound 75, (E)-N-((7-Amino-2-methylbenzofuran-3-yl)methyl)-N-methyl-3-(4-oxo-2,3,4,5-tetrahydro-1H-pyrido[2,3-b][1,4]diazepin-8-yl)acrylamide] were, in that order, less than 1 µg/mL and less than 10 nM. The like results for `Cc1c(CN(C)C(=O)/C=C/c2cnc3c(c2)NC(C)(CO)C(=O)N3)oc2ccccc12` (stereo not shown) [Compound 84, (E)-3-(2-(Hydroxymethyl)-2-methyl-3-oxo-1,2,3,4-tetrahydropyrido[2,3-b]pyrazin-7-yl)-N-methyl-N-((3-methylbenzofuran-2-yl)methyl)acrylamide] were, in that order, less than 1 µg/mL and less than 10 nM.

With `Cc1oc2c(Oc3cncs3)cccc2c1CN(C)C(=O)/C=C/c1cnc2c(c1)NCCC(=O)N2` [Compound 101, (E)-N-Methyl-N-((2-methyl-7-(thiazol-5-yloxy)benzofuran-3-yl)methyl)-3-(4-oxo-2,3,4,5-tetrahydro-1H-pyrido[2,3-b][1,4]diazepin-8-yl)acrylamide], in the assay on Neisseria gonorrhoeae (setting [2]), the MIC50 is less than 1 µg/mL. In assay [1], the IC50 was less than 10 nM.

Turning to `Cc1oc2c(N)cccc2c1CN(C)C(=O)/C=C/c1cnc2c(c1)NCC(C)(C)C(=O)N2` [Compound 109, (E)-N-((7-Amino-2-methylbenzofuran-3-yl)methyl)-3-(3,3-dimethyl-4-oxo-2,3,4,5-tetrahydro-1H-pyrido[2,3-b][1,4]diazepin-8-yl)-N-methylacrylamide], the MIC50 in the assay on Neisseria gonorrhoeae (setting [2]) is less than 1 µg/mL. This compound came in with an IC50 in assay [1] of less than 10 nM. The like results for `N#Cc1cccc(Oc2ccc(C3=C[C@H]4CN(C(=O)/C=C/c5cnc6c(c5)NCCC(=O)N6)C[C@H]4C3)cc2)c1` [Compound 123, 3-(4-((3rS,6rR)-2-((E)-3-(4-Oxo-2,3,4,5-tetrahydro-1H-pyrido[2,3-b][1,4]diazepin-8-yl)acryloyl)-1,2,3,3r,4,6r-hexahydrocyclopenta[c]pyrrol-5-yl)phenoxy)benzonitrile] were, in that order, less than 1 µg/mL and less than 10 nM. The like results for `Cc1c(CN(C)C(=O)/C=C/c2cnc3c(c2)NC[C@@](C)(O)C(=O)N3)oc2cccc(N)c12` [Compound 143, (R,E)-N-((4-amino-3-methylbenzofuran-2-yl)methyl)-3-(3-hydroxy-3-methyl-4-oxo-2,3,4,5-tetrahydro-1H-pyrido[2,3-b][1,4]diazepin-8-yl)-N-methylacrylamide] were, in that order, less than 1 µg/mL and less than 10 nM. Take `Cc1c(CN(C)C(=O)/C=C/c2cnc3c(c2)N[C@H](C)[C@@](C)(O)C(=O)N3)oc2ccccc12` [Compound 207, (E)-3-(3-hydroxy-2,3-dimethyl-4-oxo-2,3,4,5-tetrahydro-1H-pyrido[2,3-b][1,4]diazepin-8-yl)-N-methyl-N-((3-methylbenzofuran-2-yl)methyl)acrylamide]: the MIC50 with Neisseria gonorrhoeae (setting [2]) is less than 1 µg/mL.
